From ChEMBL document CHEMBL3301361, “Experimental in vitro DMPK and physicochemical data on a set of publicly disclosed compounds” come the findings set out here.

Structures are written as SMILES. Converted amounts (≈) assume the structure as drawn.

This series can be described thus: physchem. The settings on record: pH 7.4 buffer.

`Nc1ccc2c(c1)cc(C(=O)O)n2Cc1ccc(Cl)c(Cl)c1` had a thermodynamic solubility of 347 µM (≈ 116 µg/mL). As for `CCN1CCN(Cc2ccc(-c3cc4c(N[C@H](C)c5ccccc5)ncnc4[nH]3)cc2)CC1` [AEE-788], the figure is 58.9 µM (≈ 26 µg/mL); as for `CCN(C(=O)NCc1cccc(C)c1)C1CCN(CCC(c2ccccc2)c2ccccc2)CC1`, 70.8 µM (≈ 33.3 µg/mL). Consider `C[C@@H](c1ccc(-c2ccc(F)cc2F)cc1)N1CC[C@@](CCO)(c2ccc(F)cc2)OC1=O`, for which the thermodynamic solubility turned out to be 5.2 µM (≈ 2.37 µg/mL).

In the case of `O=C(c1ccc(F)cc1)C1CCN(C(=O)c2ccccc2)CC1`, the thermodynamic solubility was 200 µM (≈ 62.1 µg/mL).

In turn, `O=C(Nc1nccs1)[C@H](CC1CCOCC1)c1ccc(S(=O)(=O)C2CC2)cc1` had a solubility (thermodynamic) of 295 µM (≈ 124 µg/mL).

The compound `O=C(c1ccccc1)C1CCN(C(=O)c2ccc(Cl)cc2)CC1` displayed a thermodynamic solubility of 28.8 µM (≈ 9.44 µg/mL). As for `Oc1cc(-c2ccc3c(c2)OCO3)nc2ccccc12`, the figure is 6.2 µM (≈ 1.64 µg/mL); as for `Cc1ccc(-c2nnc(-c3ccccc3)o2)cc1`, 6.2 µM (≈ 1.46 µg/mL); as for `Cc1cc(C)cc(-c2[nH]c3sc(C(C)(C)C(=O)N4C5CCC4CC5)cc3c2CCN2CCC(C(=O)N3CCOCC3)C(C)C2)c1` (stereo not given), 33.1 µM (≈ 20.9 µg/mL). For `COc1cc2ncnc(Nc3ccc(NC(=O)c4ccccc4)cc3)c2cc1OC` [ANILINOQUINAZOLINE1] the value was 10 µM (≈ 4 µg/mL); for `COc1ccc(Nc2ncnc3cccc(OC4CCN(C)CC4)c23)cc1Cl`, 87.1 µM (≈ 34.7 µg/mL); for `COc1cc2c(Nc3cnc(NC(=O)c4ccccc4)nc3)ncnc2cc1OC[C@@H](O)CN1CCCCC1`, 1510 µM (≈ 802 µg/mL).

Regarding `O=C(Nc1ccccc1)c1ccc2cccc(O)c2n1`, the solubility (thermodynamic) is 6.6 µM (≈ 1.74 µg/mL). As for `C[C@@H](Nc1ncnc2[nH]c(-c3ccc(O)cc3)cc12)c1ccccc1` [PKI-166], the figure is 28.8 µM (≈ 9.52 µg/mL); as for `C[C@@H](Oc1cccc2ncnc(Nc3ccc4c(cnn4Cc4ccccn4)c3)c12)C(=O)N1CCCC1`, 110 µM (≈ 54.1 µg/mL); as for `CC(C)(C)OC(=O)N1CCN(c2ccc(OCc3ccc(S(C)(=O)=O)cc3)cn2)CC1`, 1 µM (≈ 0.448 µg/mL). For `COc1ccc([C@H](CC(=O)O)N2CCN(CCCc3ccc4c(n3)NCCC4)C2=O)cn1` the value was 2.5 µM (≈ 1.1 µg/mL); for `Clc1cccc(CNc2[nH]nc3cccc(Oc4ccccc4)c23)c1`, 1.3 µM (≈ 0.455 µg/mL); for `Cc1cc(C)cc(-c2[nH]c3sc(C(C)(C)C(=O)N4C5CCC4CC5)cc3c2CCN2CCC(CC(=O)N3CCOCC3)CC2)c1`, 1.9 µM (≈ 1.2 µg/mL). As for `CN(C)S(=O)(=O)n1c2ccccc2c2cc(NC(=O)CCc3ccncc3)ccc21`, the figure is 9.5 µM (≈ 4.01 µg/mL); as for `O=C(NC1CCCC1)C1CCCN(S(=O)(=O)c2cccc3cccnc23)C1` (stereo not given), 8.7 µM (≈ 3.37 µg/mL). In turn, `COc1cc2c(Nc3ccc(Oc4ccccc4)cc3)c(C#N)cnc2cc1OCCCN1CCOCC1` came in with a solubility (thermodynamic) of 0.9 µM (≈ 0.46 µg/mL). Compound `Nc1nc(Nc2ccc(Cl)cc2)cc(-c2ccccc2)n1` came in with a solubility (thermodynamic) of 2.2 µM (≈ 0.653 µg/mL). For `CCN(C(=O)Cc1ccc(S(C)(=O)=O)cc1)C1CCN(CCC(c2ccccc2)c2ccc(NS(=O)(=O)Cc3ccccc3)cc2)CC1` (stereo not given) the value was 2.3 µM (≈ 1.58 µg/mL); for `N#CC1(NC(=O)[C@@H]2CCCC[C@H]2C(=O)N2CCc3[nH]c4ccc(C(F)(F)F)cc4c3C2)CC1`, 74.1 µM (≈ 34 µg/mL); for `O=C(O)CCC[C@@H]1c2ccccc2C[C@H]1NC(=O)c1cc2cc(F)ccc2[nH]1`, 85.1 µM (≈ 32.4 µg/mL). For `COc1cc2c(Nc3ncc(CC(=O)Nc4cccc(F)c4)s3)ncnc2cc1OCCCN1CCN(C)CC1` the value was 1.8 µM (≈ 1.02 µg/mL); for `Cc1ccc(Oc2ccc(Nc3ncnc4cccc(O[C@H](C)C(=O)N5CCOCC5)c34)cc2Cl)cn1`, 2.3 µM (≈ 1.2 µg/mL); for `Cc1cn(-c2cc(NC(=O)c3ccc(C)c(Nc4nccc(-c5cccnc5)n4)c3)cc(C(F)(F)F)c2)cn1` [NILOTINIB], 1.1 µM (≈ 0.582 µg/mL).

On to `COCC(=O)NC/C=C/c1ccc2ncnc(Nc3ccc(Oc4ccc(C)nc4)c(C)c3)c2c1` [CP-724714], for which the thermodynamic solubility was 1.1 µM (≈ 0.516 µg/mL). As for `CO[C@H]1CN(Cc2ccc(C(F)(F)F)cc2)CC[C@H]1N(C)C(=O)Cc1ccc(-n2cnnn2)cc1`, the figure is 263 µM (≈ 128 µg/mL); as for `COc1ccc(Cn2c(CCc3c[nH]c4ccccc34)nnc2[C@@H](Cc2c[nH]c3ccccc23)NC(=O)C2CCNCC2)c(OC)c1`, 550 µM (≈ 347 µg/mL). Take `O=S(=O)(Cc1cc(-c2ccccc2)no1)c1ccccc1`: the solubility (thermodynamic) was found to be 6.6 µM (≈ 1.98 µg/mL). Compound `CN(C)CCCNS(=O)(=O)c1ccc(Nc2nccc(-c3cnc4cccnn34)n2)cc1` had a solubility (thermodynamic) of 158 µM (≈ 71.7 µg/mL). As for `CNC(=O)[C@@H](NC(=O)[C@H](CC(C)C)[C@H](OCc1cc2c(=O)[nH]c(C)nc2cc1Br)C(=O)NO)C(C)(C)C`, the figure is 457 µM (≈ 266 µg/mL); as for `O=C(N1CCC(c2ccncc2)CC1)N1CCN(S(=O)(=O)c2ccc(Cl)cc2)CC1`, 8.7 µM (≈ 3.91 µg/mL); as for `Cn1[nH]c(CSc2ccc(Cl)cc2)cc1=O`, 468 µM (≈ 119 µg/mL). Consider `N=C(N)Nc1nc(-c2cccc(O)c2)cs1`, for which the thermodynamic solubility was 79.4 µM (≈ 18.6 µg/mL). For `CC(=O)N(C1=C(NCCO)C(=O)c2ccccc2C1=O)c1cccc(Br)c1` the value was 11.7 µM (≈ 5.02 µg/mL). As for `NC(=O)Nc1sc(-c2ccccc2)cc1C(=O)Nc1ccccc1`, the figure is 0.6 µM (≈ 0.202 µg/mL); as for `CN(C(=O)Cc1ccc(-n2cnnn2)cc1)[C@@H]1CCN(Cc2ccc(C(F)(F)F)cc2)C[C@@H]1F`, 16.2 µM (≈ 7.72 µg/mL).

The compound `CC(C)(C)c1cc(=O)n(-c2ccccc2)[nH]1` gave a thermodynamic solubility of 708 µM (≈ 153 µg/mL). For `CC(c1ccccc1)n1cnc2ccccc2c1=O` (stereo not given) the value was 468 µM (≈ 117 µg/mL). As for `C[C@H]1CN(C(=O)OC(C)(C)C)CCN1c1ncc(OCc2ccc(S(C)(=O)=O)cc2)cn1`, the figure is 2.3 µM (≈ 1.06 µg/mL).

`Cc1csc(NC(=O)c2ccccc2)n1`: the thermodynamic solubility worked out at 331 µM (≈ 72.3 µg/mL). For `N#CC1(NC(=O)[C@@H]2CCCC[C@H]2C(=O)N2CCc3[nH]c4cc(F)ccc4c3C2)CC1` the value was 537 µM (≈ 219 µg/mL). For `C[C@H](Oc1cccc2ncnc(Nc3ccc4c(cnn4Cc4nccs4)c3)c12)C(=O)N(C)C` the value was 31.6 µM (≈ 15 µg/mL). For `CCc1ccc(-c2cc(O)c3ccccc3n2)cc1` the value was 4 µM (≈ 0.997 µg/mL); for `COc1ccc(C(=O)Nc2ccccc2)cc1`, 18.2 µM (≈ 4.14 µg/mL).

`O=[N+]([O-])c1ccc(CCl)cc1` showed a thermodynamic solubility of 501 µM (≈ 86 µg/mL). `CS(=O)(=O)Cc1cc(N2CC3CCC(C2)O3)nc(-c2ccc3[nH]ccc3c2)n1` had a thermodynamic solubility of 1.5 µM (≈ 0.598 µg/mL).

On to `N#CC1(NC(=O)[C@@H]2CCCC[C@H]2C(=O)N2CCc3[nH]c4ccccc4c3C2)CC1`, for which the solubility (thermodynamic) stood at 912 µM (≈ 356 µg/mL).

For the compound `COc1cc2c(Nc3ncc(CC(=O)Nc4ccccc4)s3)ncnc2cc1OCCCN1CCOCC1`, the solubility (thermodynamic) was found to be 0.4 µM (≈ 0.214 µg/mL).

The compound `Nc1c2c(O)nc(O)cc2nn1-c1ccccc1` displayed a thermodynamic solubility of 178 µM (≈ 43.1 µg/mL).

As to `OC1(C#Cc2ccc(-c3ccccc3)cc2)CN2CCC1CC2` (stereo not given), the solubility (thermodynamic) is 14.8 µM (≈ 4.49 µg/mL). As for `Cc1cc(O)nc(SCC(=O)c2ccccc2)n1`, the figure is 708 µM (≈ 184 µg/mL); as for `CCn1cc(NC(=O)Cc2ccc(Oc3ncnc4cc(OC)c(OC)cc34)cc2)cn1`, 24 µM (≈ 10.4 µg/mL); as for `CC[C@@H](C)NC(=O)c1ccc(Oc2ccc(C#C[C@]3(O)CN4CCC3CC4)cc2)cc1`, 112 µM (≈ 47 µg/mL).

In turn, `CC1(C)SCCN(S(=O)(=O)c2ccc(Oc3ccncc3)cc2)[C@H]1C(=O)NO` [PRINOMASTAT] returned a thermodynamic solubility of 69.2 µM (≈ 29.3 µg/mL). For `CCCCC(CC)CNC(=O)c1ccc2c(c1)c(Cc1ccc(C(=O)NS(=O)(=O)c3ccccc3C)cc1OC)cn2C` (stereo not given) the value was 6.5 µM (≈ 3.92 µg/mL); for `Cc1c(Br)sc2nc(O)c(-c3ccccc3)c(O)c12`, 3.9 µM (≈ 1.31 µg/mL); for `CCn1cc(NC(=O)Cc2ccc(Oc3ccnc4cc(OC)c(OC)cc34)cn2)cn1`, 15.8 µM (≈ 6.85 µg/mL).

Turning to `O=S(=O)(Nc1ccccn1)c1ccc(C2CCCCC2)cc1`, the thermodynamic solubility turned out to be 2.8 µM (≈ 0.886 µg/mL). On to `NC(=O)Nc1sc(-c2ccccc2)cc1C(=O)NCc1ccccc1`, for which the thermodynamic solubility was 0.8 µM (≈ 0.281 µg/mL). For `CC(C)(C)C(O)C(Cc1ccccc1Cl)n1cncn1` (stereo not given) the value was 398 µM (≈ 117 µg/mL); for `COc1cc(OC2CN(C(C)=O)C2)ccc1Nc1ncc(Cl)c(-c2cnc3ccccn23)n1`, 1.7 µM (≈ 0.79 µg/mL); for `CNC(=O)[C@@H](C)Oc1cccc2ncnc(Nc3ccc(OCc4ccccn4)c(Cl)c3)c12`, 1.6 µM (≈ 0.742 µg/mL). For the compound `c1ccc(-c2nnc(-c3ccccc3)o2)cc1`, the thermodynamic solubility was 15.8 µM (≈ 3.51 µg/mL). As for `O=C(Nc1ccccc1)Nc1ccncc1`, the figure is 1350 µM (≈ 288 µg/mL); as for `Cc1cc(Nc2ncnc3[nH]nc(OCCN4CCC(O)CC4)c23)ccc1OCc1cccc(F)c1`, 6.8 µM (≈ 3.35 µg/mL); as for `c1ccc(-c2nc[nH]c2-c2ccccc2)cc1`, 22.9 µM (≈ 5.04 µg/mL). For `CC(=O)Nc1nc2c(s1)C(=O)NCCC2` the value was 1350 µM (≈ 304 µg/mL); for `N#Cc1c(C2CCCNC2)cc(-c2c(O)cccc2OCC2CC2)nc1N` (stereo not given), 8.1 µM (≈ 2.95 µg/mL); for `COc1ccc(Cl)c(Nc2ncnc3cc(OCCCN4CCOCC4)c(OC)cc23)c1`, 72.4 µM (≈ 33.2 µg/mL). For `C[C@@H]1CN(c2ncc(OCc3ccc(S(C)(=O)=O)cc3)cn2)CCN1C(=O)OC(C)(C)C` the value was 3.3 µM (≈ 1.53 µg/mL); for `CCc1cc(NC(=O)Cc2ccc(Oc3ccnc4cc(OC)c(OC)cc34)cc2OC)[nH]n1`, 11 µM (≈ 5.09 µg/mL). On to `COc1cc2c(Nc3ccc(Br)cc3F)ncnc2cc1OCCCN1CCN(C)CC1`, for which the solubility (thermodynamic) was found to be 41.7 µM (≈ 21 µg/mL).

Consider `N=C(N)c1ccc2cc(C(=O)Nc3ccc(CN)cc3)cc(Nc3ncccn3)c2c1`, for which the solubility (thermodynamic) stood at 151 µM (≈ 62.3 µg/mL). As for `CS(=O)(=O)Cc1cc(N2CCOCC2)nc(-c2cnc3[nH]ccc3c2)n1`, the figure is 47.9 µM (≈ 17.9 µg/mL). As to `COc1cc(OC)cc(-c2cc3cnc(N)nc3nc2NC(=O)NC(C)(C)C)c1`, the solubility (thermodynamic) came out at 0.4 µM (≈ 0.159 µg/mL). For `Nc1ncc(-c2cnn(CCO)c2)cc1-c1nc2ccccc2o1` the value was 3.1 µM (≈ 0.996 µg/mL); for `O=C(Nc1ccccc1)c1ccc(OCCCN2CCCC2)cc1OCc1ccccc1`, 61.7 µM (≈ 26.6 µg/mL). For `Nc1ccccc1NC(=O)c1ccc(C2CCN(CCC(=O)Nc3ccccc3F)CC2)cc1` the value was 112 µM (≈ 51.7 µg/mL); for `CCc1c[nH]nc1NC(=O)Cc1ccc(Oc2ccnc3cc(OC)ccc23)cc1OC`, 7.4 µM (≈ 3.2 µg/mL).

Broadly, the thermodynamic solubility is solubility found after equilibrating the solid with the medium.
